Converted amounts (≈) assume the structure as drawn. “Also recorded” adds a separate entry of the source. Read-outs that look alike come from different tables or passages of the source.
Legend:
Streptococcus = assay: Antibiotic spectrum: Streptococcus; format: cell-based; details: Gram positive, replicating conditions, n=1 experiment; for MIC: Streptococcus, read-out: MIC against Streptococcus
Escherichia coli = assay: Antibiotic spectrum: Escherichia coli; format: cell-based; details: Gram negative, replicating conditions, n=1 experiment; for MIC: Escherichia coli, read-out: MIC against Escherichia coli
[1] = system: non-replicating M. tuberculosis; assay: microbe, parasite or virus in culture; format: cell-based, Mycobacterium tuberculosis; details: for MIC: Mycobacterium tuberculosis
[2] = system: replicating M. tuberculosis; assay: MIC under replication (R) conditions; format: cell-based, Mycobacterium tuberculosis; details: for MIC: Mycobacterium tuberculosis
Pseudomonas aeruginosa = assay: Antibiotic spectrum: Pseudomonas aeruginosa; format: cell-based; details: Gram negative, replicating conditions, n=1 experiment; for MIC: Pseudomonas aeruginosa, read-out: MIC against Pseudomonas aeruginosa
Staphylococcus aureus = assay: Antibiotic spectrum: Staphylococcus aureus; format: cell-based; details: Gram positive, replicating conditions, n=1 experiment; for MIC: Staphylococcus aureus, read-out: MIC against Staphylococcus aureus
HepG2 cells = format: cell-based; details: human, 2 day
Protocol: Three lead compounds were identified in the first round of high throughput screening (700 compounds), which had minimal inhibitory concentrations (MIC) of 0.4-0.8 μg/mL after a six day exposure to drug (NRd6) in the model of non-replication at pH 5.0, and LD50's of 100 to >100 μg/mL against HepG2 cells (a 2 day exposure).
Furthermore, LD50 values were determined using a human hepatoma cell line (HepG2) using intracellular ATP levels as a measurement that correlated with cellular viability.

[3] = system: non-replicating wild-type Mycobacterium tuberculosis (Mtb); assay: CFU-based cidal assay, non-replicating wild-type Mtb (FIG. 1); format: cell-based
[4] = system: wild-type Mtb infecting murine bone marrow-derived macrophages; assay: Killing of Mtb infecting bone marrow-derived macrophages (FIG. 2); format: cell-based, Mycobacterium tuberculosis; details: 100 μg/mL
[5] = system: murine bone marrow-derived macrophages; assay: Toxicity to macrophages by visual inspection; details: 100 μg/mL; visual inspection at 400× magnification
Candida albicans = assay: Activity against fungus Candida albicans; format: cell-based; details: pH 5.0
Protocol: In addition, activity was tested against the fungus Candida albicans at pH 5.0.

[6] = 72 h, pH 5, Table 2, library samples (purity approximately 75%), read-out: MIC NR pH 5.0, day 3 exposure
[7] = 144 h, pH 5, Table 2, library samples (purity approximately 75%), read-out: MIC NR pH 5.0, day 6 exposure
[8] = pH 5, read-out: MIC NR pH 5, D3 exposure
[9] = pH 5, read-out: MIC NR pH 5, D6 exposure
[10] = read-out: MIC NR at 0.01 Inoc. and 3 Day Exposure to Drug, 7 Day Outgrowth, Table 8, ranges from multiple assays
[11] = read-out: MIC NR at 0.01 Inoc. and 3 Day Exposure to Drug, 11 Day Outgrowth, Table 8, ranges from multiple assays

SMILES | MIC against Streptococcus (Streptococcus) [µg/mL] | MIC (Streptococcus) [µg/mL] | MIC (Escherichia coli) [µg/mL] | MIC against Escherichia coli (Escherichia coli) [µg/mL] | MIC [1, 6] [µg/mL] | MIC [1, 7] [µg/mL] | MIC [1, 8] [µg/mL] | MIC [1, 9] [µg/mL] | MIC [1, 10] [µg/mL] | MIC [1, 11] [µg/mL] | MIC against Pseudomonas aeruginosa (Pseudomonas aeruginosa) [µg/mL] | MIC (Pseudomonas aeruginosa) [µg/mL] | MIC against Staphylococcus aureus (Staphylococcus aureus) [µg/mL] | MIC (Staphylococcus aureus) [µg/mL] | HepG2 Toxicity LD50 (HepG2 cells) | HepG2 toxicity (HepG2 cells) [µg/mL] | other results
CCCN[C@@H]1C(=O)N2C(C(=O)OCCC)=C(C)CS[C@H]12 [Compound 11c, (6R,7R)-propyl 3-methyl-8-oxo-7-(propylamino)-5-thia-1-azabicyclo[4.2.0]oct-2-ene-2-carboxylate] | >100 | > 100 | > 100 | >100 | 6.3 (≈ 21.1 µM) | 1.6 (≈ 5.36 µM) | 1.6 (≈ 5.36 µM) | 0.4 (≈ 1.34 µM) | 0.39 to 0.78 (≈ 1.31 to 2.61 µM) | 0.78 (≈ 2.61 µM) | >100 | > 100 | >100 | > 100 | 100−>100 | >100 | selectivity index (LD50/MIC-NRd6) [1]: 129; MIC ([2]; pH 6.6, read-out: MIC pH 6.6, R cells): > 100 µg/mL
CCCOC(=O)C1=C(C)CS[C@@H]2[C@H](NC(=O)OCc3ccccc3)C(=O)N12 [Compound 13] | >100 | > 100 | > 100 | >100 | 6.3 (≈ 16.1 µM) | < 0.39 | 1.6 (≈ 4.1 µM) | 0.8 (≈ 2.05 µM) | 0.2 to 0.39 (≈ 0.512 to 0.999 µM) | 0.39 to 0.78 (≈ 0.999 to 2 µM) | >100 | > 100 | >100 | > 100 | 100 µg/mL | 100 | surviving Mtb (limit of detection) ([3]; 10 μg/mL, 7 days at 1% O2, OD580 0.01, 7H11-OADC agar): < 100 colony forming units; effect of clavulanate on killing of non-replicating Mtb ([3]; NR conditions, 7 days, presence or absence of clavulanate): clavulanate-independent; also recorded: not detected; cidality against non-replicating wild-type Mtb ([3]; starting inoculum 0.01): cidal activity; also recorded: significant cidality; killing of wild-type Mtb infecting macrophages [4]: kills; increased killing in IFNγ-activated BMDMs versus unactivated ([4]; +50 ng/mL IFNγ vs −IFNγ): approximately 0.5 log10; killing of intracellular Mtb, log10 reduction of CFU ([4]; activated macrophages, MOI 5, two independent experiments): ~1.5 log10; MIC ([2]; pH 6.6, Table 3, resynthesized to >95% purity, read-out: MIC pH 6.6, R cells): > 100 µg/mL; MIC against replicating Mtb in presence or absence of clavulanic acid ([2]; with vs without clavulanic acid): identical; toxicity to the macrophages [5]: no toxicity; MIC (Candida albicans): > 100 µg/mL

From patent US10059722B2, “Cephalosporin derivatives and methods of use” (priority 2012, dated 2018)
